# Measured values published in patent publication US6653319B1, “Pharmaceutical formulation for poorly water soluble camptothecin analogues” (University of Kentucky Research Foundation, priority 2001, dated 2003).
# Entries after “also recorded” stand apart in the source; their conditions may differ.
# Legend:
# [1] = compared with FDA approved camptothecin analogs (Camptosar and Hycamtin); cited from earlier work
# [2] = Solubility method to determine complex formation constants with HP-CD; assay type: physicochemical
# Protocol: (§1) To understand the complexation mechanisms behind this solubilization effect, a solubility method was employed to determine the formation constant between a camptothecin analogue and a cyclodextrin derivative. In the solubility experiment, the solution pH was controlled below 4.6 with a 30 mM citrate buffer.
# (§2) In the limit of [CD]>>So, the relevant formation constants can be expressed as: […]
# (§3) where So is the solubility in the absence of cyclodextrins, Kf^1:1 and Kf^1:2 are the 1:1 and 1:2 complex formation constants, and [CD] is concentration of cyclodextrin. A linear least-squares fit of the data for SBE-CD as shown in FIG. 3 yields the complex formation constant of Kf^1:1=8.5±0.2×10^3M^−1(r^2=0.999). […] The inability for SBE-CD to form 1:2 complexes with DB-67 apparently arises from the presence of an average of seven negatively charged sulfobutyl ether groups in a SBE-CD molecule preventing the approach of two SBE-CDs to each other to form 1:2 complexes. A least-squares fit of the data for HP-CD as shown in FIG. 3 according to Equation 1 yields the 1:1 and 1:2 complex formation constants of Kf^1:1=5.8±0.2×10^3M^−1 and […]±0.2 ×10^4M^−1(r^2=1.000).
# [3] = Solubilities of DB-67 in various solvent systems at 25° C. (excess drug, filtration, HPLC); assay type: physicochemical
# Protocol: Solubilities of DB-67 or camptothecin in a given solvent system were determined by adding an amount of the drugs well in excess of its estimated solubility to 1-2 mL of the desired solvent in a 4-mL glass vial. The capped vial was rotated in a VWR2010 incubator set at 25° C. for a period of 3-15 days. The sample was then passed through a 0.45 μm filter, except for liposome or emulsion samples, which were passed through a 1.2 μm filter. The collected sample was weighed, diluted with methanol, and analyzed by HPLC. The HPLC system consisted of a Discovery C18 15 cm×4.6 mm column and a Discovery C18 2 cm×4.6 mm 5 μm guard column (Supelco), a Beckman 110B solvent delivery module, a Rheodyne M7125 injector with a […] (Rainin), a Waters M2487 Dual λ Absorbance detector set at 254 nm, an HP 3392A integrator, and a mobile phase of 25% and 41% (v/v) acetonitrile in 2% (w/v) triethylamine acetate for camptothecin and DB-67, respectively.
# The solubility-pH profile for DB-67 in aqueous solution is presented in FIG. 2, where the curve is a […] using an equilibrium model for the base-catalyzed lactone-ring opening and ionization of substituents in DB-67 (10-OH and the —COOH when the lactone-ring is opened at a basic pH).
# [4] = Solubility method to determine complex formation constant with SBE-CD; assay type: physicochemical
# Protocol: as §1, §2, §3
# [5] = Reaction kinetics of lactone-ring opening and closing (hydrolysis) in aqueous solution by HPLC; assay type: physicochemical
# Protocol: The reaction kinetics for the E-ring opened and closed DB-67 were investigated in aqueous solutions at pH 7.4 and 4.0, respectively. The reactions were thermostated at 25±0.1° C. by a circulation water bath and initiated by adding 0.1 mL of reactants (Species I DB-67 in DMSO or Species II DB-67 in 2 mM NaOH; see FIG. 1) to a 30 mM phosphate or acetate buffer solution with an initial reactant concentration of 2-4×10^−6 M. After the addition and at different time intervals, aliquots of the reaction solutions were withdrawn and immediately assayed by HPLC. The concentrations of both species I and II were monitored in order to evaluate the mass balance and other possible degradation products. Simultaneous non-linear least-squares fits of the kinetic profiles yield the first-order rate constants for the lactone-ring opening and closing processes of kopen=1.1±0.1×10^−4 s^−1 and kclose=3.3±0.3×10^−4 s^−1.
# We have also investigated the hydrolysis processes for the lactone-ring intact DB-67 (Species I) at pH 7.4 in the presence of 20% (w/v) SBE-CD and HP-CD, respectively. […] The fitted rate constants are kopen=(7.1±0.1)×10^−5s^−1 and kopen=(6.2±0.1)×10^−5s^−1 for 20% (w/v) SBE-CD and HP-CD, respectively. As noted above, the presence of 20% (w/v) SBE-CD or HP-CD reduces the rate for the lactone-ring opening process by 1.6- and 1.8-fold, respectively. The rate reduction is therefore more marked in the presence of HP-CD.
# [6] = assay type: physicochemical
# Protocol: A successful pharmaceutical formulation with a supersaturated drug concentration requires a physical stability with respect to drug precipitation. In our first attempt, 20-25 mg/mL of DB-67 was loaded in DMSO because of the drug's high solubility in this solvent. The dissolved DB-67 was then added slowly to a 20% (w/v) SBE-CD aqueous solution by a volume ratio of 1:9 to achieve a final drug concentration of 2 mg/mL. The dilution rate was maintained at 0.10 mL/min. […] A proper control of the release pattern (local or uniform) and rate of DB-67 into the dilution medium is therefore critical to the success of this type of formulation approach.
# As described above, a slow and uniform release of DB-67 into a dilution medium may be accomplished by employing a chemical approach, namely by converting the E-ring opened DB-67 (Species II, see FIG. 1), which is highly water-soluble, to the neutral E-ring closed DB-67 (Species I) in a controlled fashion. […] Accordingly, 20 mg/mL of DB-67 was loaded in a sodium hydroxide solution with NaOH concentration maintained at twice that of the drug concentration. The prepared DB-67 alkaline aqueous solution was passed through a 0.2 μm filter before it was added slowly (0.11 mL/min) into 20% (w/v) acidic SBE-CD solution by a volume ratio of 1:9. In order to completely neutralize DB-67, HCl was present in the dilution solution in an amount equal to the amount of NaOH in the DB-67 alkaline solution. A small amount of acetate buffer (5 mM) was also included in the dilution medium to control the solution pH to about 4 in order to facilitate a timely conversion from the E-ring opened DB-67 to its E-ring closed counterpart.
# Shortly after the lyophilization, the lyophilized sample was reconstituted and the stability of the reconstituted solution was examined following the same procedure as described above.
# The precipitation profiles of DB-67 solutions containing other solubilizing agents such as liposomes and an acidic aqueous cosolvent solution comprising an equal volume mixture of ethanol and cremophor, prepared as described in Examples 3 and 4, respectively, were evaluated.
# [7] = HP-CD, E-ring closed DB-67, pH below 4.6, 30 mM citrate buffer, fit to Equation 1
structure (smiles),measurement,setting,value
"CC[C@@]1(O)C(=O)OCc2c1cc1n(c2=O)Cc2c-1nc1ccc(O)cc1c2[Si](C)(C)C(C)(C)C [DB-67, 7-t-butyldimethylsilyl-10-hydroxycamptothecin]",potency in in vitro cytotoxicity assays,[1],comparable potency to other FDA approved camptothecin analogs
same,DB-67 included in the CD hydrophobic cavity,[2]; 20% (w/v) HP-CD,more than 99.9%
same,complexes in the form of 1:2 complexes,[2]; 20% (w/v) HP-CD,roughly 46%
same,1:1 complex formation constant Kf^1:1,[2]; [7],5.8±0.2×10^3 M^−1
same,1:2 complex formation constant (printed as Kf^1:1),[2]; [7],3.8±0.2 ×10^4 M^−1
same,S (solubility),"[3]; 5% Cremophor, 5% (v/v) in 5% (w/v) Dextrose/Water, 25° C., single sample",200 µg/mL
same,S (solubility),"[3]; 10% (v/v) PEG-400/water, 25° C.",(3.3 ± 0.5) × 10^−2 mg/mL
same,S (solubility),"[3]; 40% (w/v) HPCD/water, 25° C.",(4.9 ± 0.2) × 10^−1 mg/mL
same,S (solubility),"[3]; 40% (w/v) SBE-CD/water/1 mM HCl, 25° C.",(2.09 ± 0.04) × 10^−1 mg/mL
same,S (solubility),"[3]; 40% PG, 10% (v/v) EtOH/water, 25° C.",(1.73 ± 0.04) × 10^−1 mg/mL
same,S (solubility),"[3]; 50% (v/v) PEG-400/water, 25° C.",(2.0 ± 0.3) × 10^−1 mg/mL
same,S (solubility),"[3]; 50% Cremophor, 50% (v/v) EtOH (Diluent-12), 25° C.",(7.5 ± 0.2) × 10^0 mg/mL
same,S (solubility),"[3]; Emulsion (20% soybean oil, 2% glycerin, 73% water, 4% Tween80, 1% eggPC), 25° C.",(2.06 ± 0.05) × 10^−1 mg/mL
same,S (solubility),"[3]; Liposome (70:25:5 (mole) DMPC:Chol:DMPG), 25° C.",(7.4 ± 0.3) × 10^−3 mg/mL
same,S (solubility),"[3]; Water/30 mM acetate buffer at pH 5.23, 25° C.",(1.11 ± 0.00) × 10^−5 mg/mL
same,S (solubility),"[3]; Water/0.5 M carbonate buffer at pH 10.20, 25° C., single sample",178 µg/mL
same,solubility in an aqueous solution of acidic pH,"[3]; pH 5.2, DB-67 mostly in E-ring intact form",0.11 μg/mL
same,solubility in an aqueous solution,"[3]; pH >10.2, mostly lactone-ring opened form",~18000 µg/mL
same,DB-67 bound to SBE-CD,"[4]; 20% (w/v) SBE-CD, predominantly 1:1 complexes",more than 99.8%
same,1:1 complex formation constant Kf^1:1,"[4]; SBE-CD, neutral E-ring intact DB-67, pH below 4.6, 30 mM citrate buffer, linear fit r^2=0.999",8.5±0.2×10^3 M^−1
same,reduction in the observed rate constant,"[5]; 20% (w/v) HP-CD, pH 7.4",approximately 44%
same,reduction of the rate for the lactone-ring opening process,"[5]; 20% (w/v) HP-CD, pH 7.4",1.8 fold
same,reduction of the rate for the lactone-ring opening process,"[5]; 20% (w/v) SBE-CD, pH 7.4",1.6 fold
same,first-order rate constant for lactone-ring closing kclose,"[5]; pH 4.0, 30 mM buffer, 25° C., no cyclodextrin",3.3±0.3×10^−4 s^−1
same,first-order rate constant for lactone-ring opening kopen,"[5]; pH 7.4, 30 mM buffer, 25° C., no cyclodextrin",1.1±0.1×10^−4 s^−1
same,rate constant kopen,"[5]; pH 7.4, in the presence of 20% (w/v) HP-CD",(6.2±0.1)×10^−5 s^−1
same,rate constant kopen,"[5]; pH 7.4, in the presence of 20% (w/v) SBE-CD",(7.1±0.1)×10^−5 s^−1
same,overall DB-67 concentration in the solution over time,"[6]; 2 mg/mL DB-67, 1:9 dilution of alkaline solution into 20% (w/v) acidic SBE-CD, pH 4.4",remained constant over an extended period of three days
same,time for conversion to E-ring closed DB-67 to be nearly complete,"[6]; 20% (w/v) SBE-CD, measured solution pH 4.4",≤ 100 min
same,precipitation on mechanical mixing of DB-67 in DMSO with 20% (w/v) SBE-CD,"[6]; lactone-intact DB-67 in DMSO diluted into 20% (w/v) SBE-CD aqueous solution, final concentration >1 mg/mL (2 mg/mL, 1:9, 0.10 mL/min)",precipitation occurs immediately; also recorded: precipitation occurred even during the mixing process and continued after the finish of mixing
same,loss of DB-67 during the preparation process,[6]; stable solutions prepared by the present method,< 2%
